Here are results for five compounds from patent publication US20180064682A1, “INHIBITORS OF LEUKOTRIENE-MEDIATED ACTIVITY FOR TREATING SIDE EFFECTS OF STATIN THERAPY” (Yeda Research and Development Co. Ltd., priority 2014, published 2018).

For test [1], the system named is HMGB1 released from B16 cells. As to the kind of experiment: Release of necrosis marker HMGB1 to culture medium, immunoblot, B16 cells. The test is classed as cell-based, mouse. The settings on record: Brefeldin A 1.3 μg/ml, 24 hours, MK571. How it is done: (§1) FIGS. 8A-8C. Inhibitors of the MGST2-LTC4 Pathway Attenuate ER Stress-triggered Cell Death. (FIG. 8A) Human WISH cells were treated with vehicle (Control) or Brefeldin A (0.66 μg/ml, 48 hours) in the absence or presence of BAY-cysLT2. The plates were then stained with Crystal violet. Relative viability of the cells is shown. N=4, ***p<0.001. (FIG. 8B) Mouse B16 cells were treated with vehicle (Control) or tunicamycin (1 μg/ml, 24 hours) (Tm), thapsigargin (50 nM, 24 hours) (Tg) or Brefeldin A (BfA […], 24 hours) in the presence or absence of MK571 for 24 h. The plates were stained with Crystal violet. Relative viability of the cells is shown. N=4, ***p<0.001. (FIG. 8C) Immunoblot of the necrosis marker HMGB1 released to the culture media of B16 cells treated with vehicle (Control) or Brefeldin A (1.3 μg/ml, 24 hours) in the presence or absence of MK571. Ponceau staining serves as loading control.
(§2) On top of its activity as an MRP1 inhibitor, MK571 is a potent selective CysLTR1 antagonist.
In general terms: A western blot detects proteins with antibodies after separation by electrophoresis.

For a further test, the system named is Mouse B16 cells. As to the kind of experiment: ER stress-triggered cell death, Crystal violet viability, B16 cells. It is filed as cell-based. The settings on record: 24 hours, MK571 10 μM. How it is done:
as §1, §2

A further test deals with NOX4 in human WISH cells. As to the kind of experiment: NOX4 levels by immunoblotting, WISH cells under ER stress. As to conditions: Brefeldin A 0.66 μg/ml, 24 hours. The test is classed as cell-based. How it is done:
(§3) FIGS. 6A-6C. ER stress-triggered NADPH oxidase 4 (NOX4) expression, translocation towards the nuclei and DNA oxidation are mediated by the MGST2-LTC4 pathway. (FIG. 6A) Human WISH cells were treated with vehicle (Control) or Brefeldin A (0.66 μg/ml, 24 hours) in the absence or presence of BAY-u9773, MK571 or Montelukast. NOX4 levels were evaluated by immunoblotting. (FIG. 6B) Mouse B16 cells were treated with vehicle (Control) or tunicamycin (0.5 μg/ml, 24 hours) in the absence or presence of Montelukast, BAY-u9773 or BAY-cysLT2. NOX4 levels were evaluated by immunoblotting. (FIG. 6C) Human HaCaT pre-keratinocytes were treated with vehicle (Control) or Brefeldin A (48 hours) in the absence or presence of pranlukast or BAY-u9773, then immunostained with anti 8-OHdG. Quantitative analysis of 8-OHdG fluorescence intensity is shown. N=3 *p<0.05, ****p<0.001.
Several ligands of G-protein coupled receptors to which CysLTR1 and CysLTR2 belong elicit oxidative stress through receptor-mediated activation of NOX. Human WISH cells and Mouse B16 cells were treated with vehicle (Control) or Brefeldin A (0.66 μg/ml, 24 hours) in the absence or presence of BAY-u9773, MK571 or Montelukast and NOX4 levels were evaluated by immunoblotting.

The subject of test [2] is Human HaCaT pre-keratinocytes. As to the kind of experiment: ER stress-triggered ROS accumulation, DCFH-DA staining, HaCaT cells treated with Brefeldin A. The test is classed as cell-based. As to conditions: Brefeldin A 0.33 μg/ml, 24 hours, reversan 20 μM. The source says:
FIGS. 4A-4E. ER stress-triggered ROS accumulation is mediated by MGST2-derived LTC4. (4A) Mouse B16 cells were transfected with control siRNA or MGST2 siRNA, then treated with tunicamycin and stained with the superoxide anion indicator dihydroethidium (DHE). Quantitation of relative DHE fluorescence intensity is presented as determined by the ImageJ program. N=3, ***p<0.001. (FIG. 4B) Mouse B16 cells were transfected with control siRNA or MGST2 siRNA, then treated with tunicamycin and stained with the superoxide anion indicator dihydroethidium (DHE). Silencing efficiency of mouse MGST2 mRNA as determined by qRT-PCR on replicate samples is shown. N=3, ***p<0.001. (FIG. 4C) Human HaCaT pre-keratinocytes were treated with Brefeldin A (0.33 μg/ml, 24 hours) with or without the MRP1 inhibitor reversan (20 μM) or the LTC4 antagonists pranlukast, BAY-cysLT2 or BAY-u9773. The cells were then stained with the ROS indicator DCFH-DA. Quantitative analysis of relative DCF fluorescence intensity is presented. […] N=3, * p<0.05. (FIG. 4D) Immunoblotting with anti FLAG tag of HEK 293T cell extract following transfection with either control pcDNA4 vector or pcMGST2-FLAG. (FIG. 4E) HEK 293T cells were either mock-transfected (Control), transfected with pcDNA4 or with pcMGST2-FLAG and then stained with DHE. Quantitative analysis of relative DHE fluorescence intensity is presented N=4, **p<0.01.
ER stress and oxidative stress are tightly associated, as ER stress triggers oxidative stress and vice versa. Therefore, a test for determining whether MGST2 and its product LTC4 are involved in ER stress-triggered ROS accumulation was performed. As previously reported, ER stress triggered by tunicamycin leads to accumulation of ROS, as detected by staining with the superoxide anion indicator dihydroethidium (DHE). […] MGST2 consumes GSH by coupling it not only to LTA4 but also to other substrates. […] Triggering ER stress by Brefeldin A generated ROS, as measured by the indicator dichloro-dihydro-fluorescein diacetate (DCFH-DA, FIGS. 4C, 5). […]

The test system of test [3] is differentiated mouse C2C12 myocytes. As to the kind of experiment: Simvastatin-triggered cell death of differentiated C2C12 myocytes, Crystal violet. The settings on record: for cell death triggered by simvastatin (relative cell viability): 10 uM simvastatin, 5 days, pranlukast 10 μM, BAY-cysLT2 10 μM, BAY-u9773 1 μM. The test is classed as cell-based. How it is done: FIGS. 11A-11B. BAY-cysLT2 and BAY-u9773 but not pranlukast attenuate simvastatin-triggered cell death of differentiated C2C12 mouse myocytes. (FIG. 11A) Survival of mouse C2C12 cells following differentiation into myocytes, treated with 10 uM simvastatin for 5 days in the presence of vehicle, pranlukast (10 μM), BAY-cysLT2 (10 μM), BAY-u9773 (1 μM) or Mevalonate (71.4 μM). The plates were then stained with Crystal violet and the relative cell viability was determined. (FIG. 11B) Quantification of the staining intensity is shown.
FIGS. 12A-12B. Zileuton but not montelukast attenuates simvastatin-triggered death of differentiated C2C12 mouse myocytes. (FIG. 12A) C2C12 immortalized mouse myoblasts (15,000 cells/100 ul DMEM) were seeded for 24 and then differentiated for 3 days (initiated by serum free medium supplemented with 1×ITS medium) and then treated with […] Simvastatin with or without montelukast (2 μM), zileuton (10 μM) or mevalonate (71.4 μM). After 4 days the cells were stained with crystal violet and photographed under light microscope. (FIG. 12B) Quantification of the staining intensity is shown.
To study the role of the MGST2-LTC4 pathway in statin-triggered cell death, differentiated mouse C2C12 myocytes in 96 well plates were treated with 10 uM simvastatin or vehicle in the presence of either vehicle, BAY-cysLT2 (10 μM) or BAY-u9773 (1 μM) or sodium mevalonate for 5 days.
To study the role of the MGST2-LTC4 pathway in statin-triggered cell death, differentiated mouse C2C12 myocytes in 96 well plates were treated with 20 uM simvastatin or vehicle in the presence of either vehicle, zileuton (10 μM) or sodium mevalonate for 4 days.

For test [4], the system named is Human HaCaT pre-keratinocytes. As to the kind of experiment: ER stress-triggered cell death, Crystal violet viability, HaCaT cells. The test is classed as cell-based. How it is done: (§4) FIGS. 7A-7G. The MGST2-LTC4 pathway mediates ER stress-triggered cell death. (FIG. 7A) Mouse B16 cells were transfected with control siRNA (siControl) or MGST2-specific siRNA (siMGST2), treated with vehicle or tunicamycin (1 μg/ml, 24 hours) (Tm) and then stained with Crystal violet. Relative viability of the cells is shown. N=3 ***p<0.0001. (FIG. 7B) Mouse B16 cells were transfected with control siRNA (siControl) or MGST2-specific siRNA (siMGST2), treated with vehicle or tunicamycin (Tm) and then stained with Crystal violet. Silencing efficiency of mouse MGST2 mRNA as determined by qRT-PCR on replicate samples is shown. N=3, ***p<0.001. (FIG. 7C) HEK 293T cells were mock-transfected, transfected with pcDNA4 or with pcMGST2-FLAG, treated with vehicle (Control) or Brefeldin A (0.66 μg/ml, 24 hours) and then stained with Crystal violet. Relative viability of the cells is shown. N=3 ****p<0.0001. (FIG. 7D) Human HaCaT pre-keratinocytes were treated with vehicle (Control) or Brefeldin A (BfA, 1.33 μg/ml, 48 hours) in the absence or presence of BAY-u9773 (80 nM). The plates were then stained with Crystal violet. Relative viability of the cells is shown. N=4 ***p<0.0001. (FIG. 7E) Human WISH cells were treated either with vehicle (Control) or tunicamycin (1 μg/ml, 48 hours) in the absence or presence of BAY-u9773 (80 nM) and then stained with Neutral red. Relative viability of the cells is shown. […]

The test system of test [5] is Human WISH cells. As to the kind of experiment: Tunicamycin-induced cell death, Neutral red viability, WISH cells. The settings on record: tunicamycin 1 μg/ml, 48 hours, BAY-u9773 80 nM. It is filed as cell-based. How it is done:
as §4

The subject of test [6] is Human HaCaT pre-keratinocytes. As to the kind of experiment: ER stress-triggered oxidative DNA damage, anti 8-OHdG immunostaining, HaCaT cells. As to conditions: Brefeldin A 48 hours. It is filed as cell-based. How it is done: as §3
Accumulation of nuclear ROS in response to ER stress will result in oxidative DNA damage. To test whether the MGST2-LTC4 pathway is involved in ER stress-triggered DNA damage, the formation of the oxidized DNA derivative 8-hydroxy-2′dexoxyguanosine (8-OHdG) was measured. […] Altogether, the ER stress-triggered DNA damage was mediated to a very large extent by the MGST2-LTC4 pathway.

Test [7] has as its system Human WISH cells. As to the kind of experiment: Brefeldin A-triggered cell death, Crystal violet viability, WISH cells. As to conditions: Brefeldin A 0.66 μg/ml, 48 hours, BAY-cysLT2 5 μM. The test is classed as cell-based. How it is done:
as §4

Consider `CN(C)C(=O)CCSC(SCCC(=O)O)c1cccc(/C=C/c2ccc3ccc(Cl)cc3n2)c1` (centres unmarked) [MK571], for which the “secretion of HMGB1 to the culture medium (cellular necrosis)” value in test [1] is given as “reduced secretion of HMGB1”. Also, the “cell death triggered by Brefeldin A (relative viability)” value in the test with Mouse B16 cells (Brefeldin A) is reported as “significantly attenuated cell death”. For the same compound, the “cell death triggered by thapsigargin (relative viability)” value in the test on Mouse B16 cells (thapsigargin 50 nM) was “significantly attenuated cell death”. In addition, the “cell death triggered by tunicamycin (relative viability)” value with Mouse B16 cells (tunicamycin 1 μg/ml) is “significantly attenuated cell death”. Also, in the test with NOX4 in human WISH cells, the “NOX4 expression upon ER stress” value is on record as “greatly inhibited NOX4 expression”.

For `O=C(NCCCN1CCOCC1)c1cnn2c(-c3ccccc3)cc(-c3ccccc3)nc12` [reversan], the “ROS accumulation (relative DCF fluorescence intensity)” value in [2] is given as “small but statistically insignificant inhibitory effect on ROS accumulation”.

With `CCCCC/C=C\C\C=C/C=C/C=C/[C@@H](Sc1ccc(C(=O)O)cc1)[C@@H](O)CCCC(=O)O` [BAY-u9773], the “ROS accumulation (relative DCF fluorescence intensity)” value in test [2] is on record as “significantly inhibited ROS accumulation”. For the same compound, the “cell death triggered by simvastatin (relative cell viability)” value in [3] is on record as “attenuated cell death”. Also, the “ER stress triggered cell death (relative viability)” value in [4] (Brefeldin A 1.33 μg/ml, 48 hours, BAY-u9773 80 nM) was “attenuated ER stress triggered cell death”. Besides, in the test with Human WISH cells [5], the “tunicamycin-induced death (relative viability)” value is recorded as “significantly attenuated tunicamycin-induced death”. The “NOX4 expression upon ER stress” value in the test on NOX4 in human WISH cells was “greatly inhibited NOX4 expression”. Besides, the “formation of nuclear 8-OHdG (oxidative DNA damage)” value in test [6] is “even more effective in attenuating the DNA damage”.

For `O=C(O)c1ccc(OCCCc2ccc(OCCCCOc3ccccc3)cc2)c(C(=O)NC2CCCC(C(=O)O)C2)c1` (centres unmarked) [BAY-cysLT2], the “ROS accumulation (relative DCF fluorescence intensity)” value in test [2] was “significantly inhibited ROS accumulation”. Moreover, the “cell death triggered by simvastatin (relative cell viability)” value in [3] was “attenuated cell death”. Besides, in the test with Human WISH cells [7], the “Brefeldin A-triggered death (relative viability)” value was “equally protected these cells from Brefeldin A”.

In the case of `CC(c1cc2ccccc2s1)N(O)C(N)=O` (centres unmarked) [zileuton], the “cell death triggered by simvastatin (staining intensity)” value in test [3] (20 uM simvastatin, 4 days, zileuton 10 μM, montelukast 2 μM) was “attenuated cell death”. Moreover, the “death triggered by proteasome inhibitor MG262 (relative viability)” value in test [4] (MG262 50 nM, 24 hours, zileuton 10 μM) is “significantly protected HaCaT keratinocytes from death”.
